“Also recorded” adds a separate entry of the source.
Columns and labels:
[1] = system: cataract in ultraviolet ray irradiated eyes of mouse; test: Treatment of cataract (animal experiment), UV-A+UV-B irradiation; format: in vivo
Protocol: Control group (Control): To eyes of mouse (4 eyes) were irradiated ultraviolet rays UV-A+UV-B (each 0.36J: 100 μW×1 hour) from 10 PM to 11 PM at the first day, the third day, the fifth day each once, and three times in total. Provided that, before 1 minute and after 1 minute of each ultraviolet ray irradiation, 1 drop (50 μl) of PBS (phosphate buffered physiological saline) was administered, and 1 drop of PBS was administered each once at the second day, the fourth day, the sixth day, the seventh day, the eighth day, the ninth day and the tenth day.
Pre-administered group of ultraviolet ray irradiation (Pre 0.1 g/l and Pre 0.01 g/l): To eyes of mouse were irradiated ultraviolet rays UV-A+UV-B (each 0.36J: 100 pW×1 hour) from 10 PM to 11 PM at the first day, the third day, the fifth day each once, and three times in total.
Post-administered group of ultraviolet ray irradiation (Post 0.1 g/l and Post 0.01 g/l): To eyes of mouse were irradiated ultraviolet rays UV-A+UV-B (each 0.36J: 100 μW×1 hour) from 10 PM to 11 PM at the first day, the third day and the fifth day each once, and three times in total.

[2] = system: cataract; test: Example 11: cataract patient; format: in vivo, human; conditions: 1 mg/l, 1 drop (50 μl) once per day
[3] = system: myopia; test: Example 15: myopia; format: in vivo, human
[4] = system: asthenopia; test: Example 30: asthenopia; format: in vivo, human; conditions: person; 10 mg/l, once (50 μl) a day; 3 weeks
[5] = system: diabetic retinopathy; test: Example 24: diabetic retinopathy; format: in vivo, human
[6] = system: photopsia; test: Example 28: photopsia; format: in vivo, human; conditions: person; 10 mg/l, 1 drop (50 μl) once a day for 3 weeks
[7] = system: iridocyclitis; test: Example 20: iridocyclitis; format: in vivo, human; conditions: person, right eye; 1 mg/l, 1 drop (50 μl) every morning; after 1 week
[8] = system: schizophrenia; test: Example 22: central nerve diseases (schizophrenia patient); format: in vivo, human
[9] = system: high intraocular pressure open-angle glaucoma; test: Example 10: high intraocular pressure open-angle glaucoma patient; format: in vivo, human; design: intraocular pressure, right: dose or concentration left out as unconfirmed
Protocol: The patient is person diagnosed as high intraocular pressure open-angle glaucoma. Water-soluble 17β-estradiol inclusion product (Cyclodextrin-encapsulated 17β-estradiol available from SIGMA CO. […] To the above-mentioned patient, 1 drop (25 μl) of eye drops was dropped once every morning for a week.

[10] = system: presbyopia; test: Example 12: presbyopia, near point; format: in vivo, human; conditions: for near point, left eye: before 29 cm
Protocol: The patient is person of presbyopia having slight myopia of −2.5 dioptre and −1.0D of astigmatism. When a near point of the left eye of the patient was measured without lens correction, it was 29 cm. Water-soluble 17β-estradiol inclusion product (Cyclodextrin-encapsulated 17β-estradiol available from SIGMA CO. […] To the patient was dropped 1 drop (25 μl) of eye drops at 9 AM per each eye. […] Incidentally, the far point was 41±2 cm in average.

[11] = system: dynamic visual acuity; test: Example 26: dynamic visual acuity; format: in vivo, human; conditions: person, left eye; 10 μg/ml, 50 μl one time; 30 minutes to 1 hour and 15 minutes after dropping
[12] = system: chorioretinal hemorrhage; test: Example 17: chorioretinal hemorrhage; format: in vivo, human; conditions: person, right eye; 1 mg/l, 1 drop (50 μl) once every morning, with Adona 30 mg a day orally
[13] = system: Mooren's corneal ulcer; test: Example 18: corneal ulcer; format: in vivo, human; conditions: person, right eye; 1 mg/l, 1 drop (50 μl) twice a day
From the text: Thus, it can be considered that treatment of autoimmune disease is possible.

[14] = system: pigmentary retinal degeneration; test: Example 13: pigmentary retinal degeneration; format: in vivo, human; conditions: after 77 days
Protocol: The patient is person, and has artificial intraocular lens inserted eyes already carried out a cataract operation. Due to pigmentary retinal degeneration, narrowing of visual field occurs. […] After 77 days from initiation of administration, it could be confirmed that both of visual acuity and visual field were improved. Also, when the visual fields were measured by OCTOPUS 1-2-3 static perimeter before administration and after 77 days from the initiation of the administration, and they were compared, it can be confirmed to be improved. (see FIGS. 27 to 30)

[15] = system: macular hole; test: Example 25: macular hole; format: in vivo, human
[16] = system: granular corneal degeneration; test: Example 19: corneal degeneration; format: in vivo, human
[17] = system: central chorioretinopathy (choriotetinitis); test: Example 31: central chorioretinopathy; format: in vivo, human
[18] = system: presbyopia; test: Example 16: presbyopia, corrected near visual acuity; format: in vivo, human; conditions: after 14 days; before 0.4
From the text: To […] with presbyopia having corrected near visual acuity (near vision after correction) before treatment of […]

[19] = system: normal tension glaucoma; test: Example 9: normal tension glaucoma patient; format: in vivo, human
Protocol: The patient is person diagnosed as normal tension glaucoma. Water-soluble 17β-estradiol inclusion product (Cyclodextrin-encapsulated 17β-estradiol available from SIGMA CO. […] To the above-mentioned patient, 1 drop (25 μl) of eye drops was dropped per one eye once every morning for 10 days.

[20] = system: chalazion; test: Example 14: chalazion; format: in vivo, human; conditions: child, right eye; 1 mg/l, 1 drop (50 μl) once every morning
[21] = system: chorioretinal atrophy; test: Example 23: chorioretinal atrophy; format: in vivo, human; conditions: person, 1 mg/l

For `C[C@]12CC[C@@H]3c4ccc(O)cc4CC[C@H]3[C@@H]1CC[C@@H]2O` [17β-estradiol], the “appearance of cataract, pre-administered vs post-administered group” value ([1]; administered 1 minute before vs after irradiation) was “less appearance of cataract”, the “occurrence of cataract at the tenth day” value ([1]; eye drops 0.1 g/l or 0.01 g/l, 1 drop (50 μl), pre- and post-administered groups, vs PBS control) was “occurrence of cataract had scarcely observed” and the “opacity of cataract, slit lamp microscope” value [2] was “opacity of cataract had been reduced”. For the same compound, the visual acuity [2] was “improvement in visual acuity was admitted”, the “visual acuity Vs” value ([3]; (1) after 9 days, before 0.6) was 1.0 and the “visual acuity Vs” value ([3]; (2) after 45 days, before 0.3) was 0.5. For the same compound, the asthenopia [4] was “asthenopia was lightened”, the retinal bleeding ([5]; after about 100 days) was “retinal bleeding was disappeared” and the “retinal bleeding, photograph of eyegrounds” value ([5]; person, 1 mg/l, 1 drop (50 μl) once everyday, after about 2 months) was “slightly improved”. The photopsia symptom [6] was “the symptom was lightened”, the iridocyclitis outcome [7] was “inflammatory cells in anterior chamber disappeared” and the “visual acuity Vs” value ([8]; after 14 days, initiation 0.09) was “Vs = 0.1 × IOL (0.1)”. The “Vs vision after correction” value ([8]; after 14 days, initiation 0.1) was “Vs = 0.1 × IOL (0.1)”, the “Vs vision after correction” value ([8]; after 42 days) was 0.1 and the “visual acuity Vs” value ([8]; after 42 days) was 0.09. The “Vs vision after correction” value ([8]; after 77 days) was 0.15, the “visual acuity Vs” value ([8]; after 77 days) was 0.1 and the “Vs vision after correction” value ([8]; after 115 days) was 0.2. The “visual acuity Vs” value ([8]; after 115 days) was 0.09, the mental state ([8]; patient's statement after 42 days, overall) was “improvement in mental state; also recorded: be encouraged” and the “intraocular pressure, left” value ([9]; after a week, before 24) was 18 mmHg. For the same compound, the “visual field, left eye” value ([9]; after a week, progressed defect before) was “slightly improved”, the “visual field, right eye” value ([9]; after a week, slight defect before) was “substantially normally recovered” and the “intraocular pressure, left” value ([9]; at 3 weeks) was 19 mmHg. The “intraocular pressure, right” value ([9]; at 3 weeks) was 20 mmHg, the “intraocular pressure, right” value ([9]; person, inclusion product […], 1 drop (25 μl) every morning, after a week, before 23) was 16 mmHg and the “near point, left eye” value ([10]; after 3 hours) was 24 cm. For the same compound, the “far point, average” value ([10]; in vivo) was 41±2 cm, the “maximum improvement in refraction (near point)” value ([10]; in vivo) was 5 cm and the “near point, left eye” value ([10]; person, 100 mg/l, 1 drop (25 μl), after 1 hour) was 27 cm. For the same compound, the “dynamic visual acuity (KV-100)” value [11] was “abruptly improved”, the “time until hemorrhage disappeared” value [12] was 45 days and the “time in which the disease was cured” value [13] was 3 weeks. For the same compound, the “visual fields by OCTOPUS 1-2-3 static perimeter” value [14] was “improved”, the “Vs vision after correction” value ([14]; before 0.8) was 1.0 and the “visual acuity Vs” value ([14]; before 0.8) was 0.5. For the same compound, the “visual acuity, left eye” value ([15]; after 1 month, before 0.7) was 1.2, the macular hole outcome ([15]; person, left eye, 10 mg/l, 1 drop (50 μl) twice a day for 1 month) was “macular hole was cured” and the “Vs vision after correction” value ([16]; (1) 2 weeks, before n·c) was 0.8. For the same compound, the “visual acuity Vs” value ([16]; (1) person, left eye, 1 mg/l, 1 drop twice a day, 2 weeks, before 0.6 (n·c)) was 0.4, the “visual acuity Vs” value ([17]; after treatment, before 0.1) was 0.3 and the Vs corrected vision ([17]; after treatment, before 0.8) was 1.5. The macular edema ([17]; person, left eye, 10 mg/l, 1 drop (50 μl) twice a day, a week) was “macular edema was lightened”, the “near vision after correction Vs (30 cm)” value [18] was 0.7 and the “visual field by Octopus 1-2-3” value ([19]; after 10 days) was “both eyes extremely well improved”. The “intraocular pressure, left” value ([19]; after 10 days, before 12) was 9 mmHg, the “intraocular pressure, right” value ([19]; person, 100 mg/l, 1 drop (25 μl) every morning for 10 days, before 14) was 12 mmHg and the “time until tumor disappeared” value [20] was 12 days. The “vision after correction, left eye” value ([21]; 1 drop (50 μl) once a day for 1 month, before 0.1) was 0.3 and the “vision after correction, right eye” value ([21]; 50 μl once a day for 1 month, before 0.08 (n·c)) was 0.2.

From US20110212199A1, “AGENT FOR TREATING EYE DISEASES” (priority 2003, published 2011)
